Data on 2 compounds can be found in patent publication US20230059009A1, “INHIBITORS OF LIN28 AND METHODS OF USE THEREOF” (The Regents of the University of California, priority 2019, published 2023).

Molecules are shown by their SMILES.

The subject of one assay is MCF7. Briefly: Cell viability, MTT assay, MCF7. The format is cell-based. Particulars: Homo sapiens, MCF7 (Breast). How it is done:
(§1) To measure cell viability, cell titer glow (CTG, Promega CellTiter-Glo 2.0 Assay) and MTT assays (SigmaAldrich, Cell Proliferation Kit I) were performed. Briefly, cells were serum starved overnight prior to seeding in 96-well plates. Following 24 h incubation, cells were treated with increasing concentrations of JGJ compounds for 96 hr. At assay read-out, CellTiter-Glo reagent was added and luminescence was measured after 10-minutes incubation at room temperature. For the MTT assay, MTT labeling reagent was added and incubated for 4 h. Subsequently, medium was removed and 50 μL DMSO was added to solubilize the crystals, and absorbance was measured at 570 nm. Cell viability was calculated as (Sample-Background)/(Control-Background). Current standard of care drugs, Enzalutamide, Palbociclib and Cetuximab were used as comparative controls.

Another assay concerns DU145. Kind of assay: Cell viability, MTT assay, DU145. In kind it is cell-based. Particulars: Homo sapiens, DU-145, DU145 (Prostate). How it is done: as §1
On the technique in general: Tetrazolium assays rely on reduction of a dye to a coloured formazan, in cell work by metabolically active cells.

Assay [1] relates to MDA-MB231. Briefly: Cell viability, MTT assay, MDA-MB231. Particulars: Homo sapiens, MDA-MB-231, MDA-MB231 (Breast). In kind it is cell-based. On the procedure:
as §1

The test system of assay [2] is MDA-MB231. Kind of assay: Cell viability, CTG, MDA-MB231. In kind it is cell-based. Particulars: Homo sapiens, MDA-MB-231, MDA-MB231 (Breast). How it is done: as §1
The next assay concerns H1975. Kind of assay: Cell viability, MTT assay, H1975. The format is cell-based. The conditions noted are these: Homo sapiens, NCI-H1975, H1975 (Lung). How it is done:
as §1, with “(Sample-Background)/(Control-Background).” for “(Sample-Background)/(Control-Background). Current standard of care drugs, Enzalutamide, Palbociclib and Cetuximab were used as comparative controls.”

The target of assay [3] is T1, LIN28B/pre-let-7a-2 binding (Homo sapiens, UniProt Q6ZN17).
T1 construct: made in house; host or cells: stably transduced HEK cells; used as diluted protein lysate, not purified
T1 sequence (Q6ZN17 1-250): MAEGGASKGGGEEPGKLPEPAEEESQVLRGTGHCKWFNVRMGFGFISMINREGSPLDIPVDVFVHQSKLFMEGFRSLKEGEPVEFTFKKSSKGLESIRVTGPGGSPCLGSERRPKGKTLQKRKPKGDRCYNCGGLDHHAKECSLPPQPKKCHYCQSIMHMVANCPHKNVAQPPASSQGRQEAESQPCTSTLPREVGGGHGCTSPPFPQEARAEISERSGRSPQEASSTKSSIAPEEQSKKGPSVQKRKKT
Briefly: FRET assay, EGFP-tagged LIN28B and BHQ-1 labelled pre-let-7a-2. The conditions noted are these: doses 1.25 uM-20 uM; compared with LN1632. On the procedure:
As described herein, compounds of formula (I) and (II) show Lin28/let-7 inhibitory activity in FRET assays in vitro and in LSCs and LSC-like Kasumi-1 cells. FRET assay was performed as previously described (51).
In order to improve binding and inhibitory capacity of a compound to LIN28b, we predicted the binding mode of LN1632 to LIN28B. […] With this model in hand, we synthesized novel compounds with improved binding capacity to Lin28b (JGJ002-JGJ008, FIG. 8). Compounds were screened using a previously described FRET-assay with an EGFP-tagged LIN28B as donor and a BHQ-1 quencher labelled pre-let-7a-2 (pre-let-7a-2-BHQ1) as acceptor (51). Briefly, recombinant LIN28B-EGFP was harvested from stably transduced HEK cells and diluted with binding buffer (300 mM NaCl, 25 mM HEPES pH 7.2, 10 μM ZnCl2, 1% Odyssey Blocking Buffer, 0.05% Tween 20, 0.5 mM TCEP) in order to adjust ideal FRET-quenching signal intensity. Protein lysate and compounds (JGJ001-JGJ008) were pre-incubated in doses ranging from 1.25 uM-20 uM for 20 min in 100 uL diluted protein lysate. Subsequently pre-let-7a-2-BHQ1 was added to the mixture (at 6.25 nM) and EGFP-LIN28B donor emission was measured using a Tecan Spark Plate Reader ([…], excitation at 488 nm, emission read-out at […], 30 flashes/s). […] Increased endogenous let-7 miRNA levels can target a panoply of LCS and cancer stem cell hallmark genes thus inhibiting tumor growth.
(§2) To test the structure-activity relationship, 39 LN1632-related analogs (JGJ001-39) were synthesized and their potency and specificity to inhibit LIN28B-RNA binding activity and upregulate mature let-7 miRNA levels was measured. […] The dual luciferase reporter assay was performed as previously described (89).

The subject of a further assay is BT-549. Briefly: Cell viability, MTT assay, BT-549. In kind it is cell-based. Particulars: Homo sapiens, BT-549 (Breast). How it is done: as §1
Another assay relates to SW948. Briefly: Cell viability, CTG, SW948. The conditions noted are these: Homo sapiens, SW948 (Colon). In kind it is cell-based. On the procedure:
as §1

The subject of a further assay is mature let-7 miRNAs. Briefly: Dual luciferase reporter assay of mature let-7 miRNAs in HepG2 cells. The conditions noted are these: 3-10 μM, compared with LN1632. In kind it is cell-based. How it is done:
as §2
(Reporter assays use an easily measured gene product as a stand-in for the process of interest.)

Assay [4] concerns 22RV1. Kind of assay: Cell viability, MTT assay, 22RV1. In kind it is cell-based. The conditions noted are these: Homo sapiens, 22RV1 (Prostate), 96 hr. On the procedure: as §1, with “(Sample-Background)/(Control-Background).” for “(Sample-Background)/(Control-Background). Current standard of care drugs, Enzalutamide, Palbociclib and Cetuximab were used as comparative controls.”

A further assay deals with H1568. Briefly: Cell viability, MTT assay, H1568. The format is cell-based. Particulars: NCI-H1568, H1568 (Lung). How it is done:
as §1

Another assay has as its system H23. Kind of assay: Cell viability, MTT assay, H23. Particulars: Homo sapiens, NCI-H23, H23 (Lung). In kind it is cell-based. On the procedure: as §1
For assay [5], the system named is SW620. Briefly: Cell viability, CTG, SW620. Particulars: Homo sapiens, SW-620, SW620 (Colon). In kind it is cell-based. How it is done:
as §1

The subject of another assay is A549. Kind of assay: Cell viability, MTT assay, A549. Particulars: Homo sapiens, A549 (Lung). The format is cell-based. On the procedure:
as §1, with “(Sample-Background)/(Control-Background).” for “(Sample-Background)/(Control-Background). Current standard of care drugs, Enzalutamide, Palbociclib and Cetuximab were used as comparative controls.”

The subject of assay [6] is 22RV1. Kind of assay: Cell viability, CellTiter-Glo (CTG), 22RV1. The format is cell-based. The conditions noted are these: Homo sapiens, 22RV1 (Prostate), 96 hr. On the procedure: as §1, with “(Sample-Background)/(Control-Background).” for “(Sample-Background)/(Control-Background). Current standard of care drugs, Enzalutamide, Palbociclib and Cetuximab were used as comparative controls.”
(In general: Cellular ATP, detected with luciferase, serves as a proxy for viable cell number.)

Another assay concerns LNCaP. Briefly: Cell viability, MTT assay, LNCaP. Particulars: Homo sapiens, LNCaP (Prostate). In kind it is cell-based. How it is done: as §1, with “(Sample-Background)/(Control-Background).” for “(Sample-Background)/(Control-Background). Current standard of care drugs, Enzalutamide, Palbociclib and Cetuximab were used as comparative controls.”
Another assay has as its system HCT-116. Kind of assay: Cell viability, CTG, HCT-116. In kind it is cell-based. Particulars: Homo sapiens, HCT-116 (Colon). On the procedure: as §1
The next assay deals with 22Rv1 cells. Kind of assay: 22Rv1 cell counting. In kind it is cell-based. The conditions noted are these: 2 μM JGJ023 vs 42 μM Enzalutamide, day +5, +7, +9. On the procedure: (§3) To test whether LN1632 and novel analogs thereof affect cancer cell growth, cell viability and cell counting assays in TNBC (FIG. 14B-D), castration resistant prostate cancer cells (CRPC, FIG. 15A-C) and colorectal cancer cells (CRC, FIG. 15A-C) were performed.

Another assay concerns H460. Kind of assay: Cell viability, MTT assay, H460. In kind it is cell-based. The conditions noted are these: Homo sapiens, NCI-H460, H460 (Lung). How it is done:
as §1

Assay [7] concerns SW620. Briefly: Cell viability, MTT assay, SW620. The format is cell-based. Particulars: Homo sapiens, SW-620, SW620 (Colon). On the procedure: as §1
Assay [8] has as its system SW480. Kind of assay: Cell viability, CTG, SW480. The conditions noted are these: Homo sapiens, SW480 (Colon). The format is cell-based. How it is done:
as §1, with “(Sample-Background)/(Control-Background).” for “(Sample-Background)/(Control-Background). Current standard of care drugs, Enzalutamide, Palbociclib and Cetuximab were used as comparative controls.”

For assay [9], the system named is SW480. Kind of assay: Cell viability, MTT assay, SW480. The format is cell-based. The conditions noted are these: Homo sapiens, SW480 (Colon). On the procedure:
as §1

The subject of a further assay is MYC-driven cancers. Briefly: Cell viability and cell counting assays in cancer cells. The format is cell-based. Particulars: TNBC, CRPC, lung and colorectal adenocarcinoma cells. How it is done: as §3, §1

A word on the IC50: it is the concentration needed to halve the response being measured. High values mean a need for much substance, low ones inhibition by little substance. With `CC(=O)Nc1cccc(-c2ccc3ncc(-c4ccccc4)n3n2)c1` [JGJ023, N-(3-(3-Phenylimidazo[1,2-b]pyridazin-6-yl)phenyl)acetamide], the IC50 with MCF7 was determined as 38 µM; with DU145, 3 µM; in the assay on MDA-MB231 [1] it was 61 µM; with MDA-MB231 [2] it was 17 µM; in the assay with H1975, 8 µM; with BT-549, 7 µM. Besides, the IC50 in the assay on SW948 was found to be 51 µM; in the assay on 22RV1 [4], 2 µM; in the assay on H1568 it was 12 µM; with H23, 94 µM; in the assay with SW620 [5] it was 27 µM; in the assay with A549, 20 µM. Further, the IC50 with 22RV1 [6] came out at 8 µM; in the assay on LNCaP, 6 µM; with HCT-116, 215 µM; with H460 it was 124 µM. The “Inhibition of LIN28B binding to pre-let-7a (FRET signal)” value in assay [3] is “inhibit LIN28's RNA-binding capacity significantly more than compound LN1632”. The “Upregulation of mature let-7 miRNAs” value in the assay with mature let-7 miRNAs is “upregulated mature let-7 miRNAs at significantly lower doses than LN1632”. Further, in the assay with 22Rv1 cells, the “Apoptosis and cell numbers” value is “induces apoptosis and reduces cell numbers of mCRPC compared to Enzalutamide”.
Regarding `CC(=O)Nc1cccc(-c2ccc3[nH]cc(-c4ccccc4)c3n2)c1` [JGJ034, N-(3-(3-Phenyl-1H-pyrrolo[3,2-b]pyridin-5-yl)phenyl)acetamide], the IC50 in the assay on MDA-MB231 [2] was determined as 3 µM; with SW620 [7], 2 µM; with SW480 [8], 41 µM; in the assay on SW480 [9], 33 µM; with SW948 it was 85 µM; in the assay on 22RV1 [4] it was 1 µM. For the same compound, the IC50 in the assay on SW620 [5] turned out to be 3 µM; in the assay with 22RV1 [6] it was 2 µM; in the assay on LNCaP it was 3 µM; with HCT-116, 43 µM. Further, the “Inhibition of LIN28B binding to pre-let-7a (FRET signal)” value in [3] is given as “inhibit LIN28's RNA-binding capacity significantly more than compound LN1632”. Besides, the “Upregulation of mature let-7 miRNAs” value in the assay with mature let-7 miRNAs is reported as “upregulated mature let-7 miRNAs at significantly lower doses than LN1632”. In the assay on MYC-driven cancers, the “Proliferation and apoptosis of cancer cells” value is “reduced proliferation and induced apoptosis preferentially in MYC-driven cancers”.
